# In article PMC12267702, “Harvest time and soil-plant relationship effects on phytochemical constituency and biological activities of psidium guajava L. leaves” (Scientific Reports, 2025):
# Marks after values point to notes of the source that are not given here.
# Assays:
# Format in all cases: biochemical
# α-glucosidase = α-glucosidase inhibition (in vitro anti-diabetic activity)
# Excerpt: (§1) The anti-diabetic effects of the ethyl acetate fraction from dried P. guajava leaves, collected in March and August, were compared in vitro. This comparison involved measuring the inhibition of carbohydrate hydrolyzing enzymes, including α-amylase, α-glucosidase, and β-galactosidase, as detailed in Naguib et al.[28].
# α-amylase = α-amylase inhibition (in vitro anti-diabetic activity)
# Excerpt: as §1
# β-galactosidase = β-galactosidase inhibition (in vitro anti-diabetic activity)
# Excerpt: as §1
# [1] = DPPH free radical scavenging assay
# Experimental: (§2) Two distinct antioxidant assays were performed to evaluate the radical scavenging potential of the ethyl acetate fraction obtained from dried P. guajava leaves collected in March and August. […] Ascorbic acid served as the reference standard.
# [2] = ABTS free radical scavenging assay
# Experimental: as §2
# [3] = target: T1, 5-LOX enzyme (human recombinant) (Homo sapiens, UniProt P09917); experiment: 5-LOX enzyme inhibition assay (5-LOX kit)
# T1 construct: purchased Sigma-Aldrich
# T1 sequence (P09917 1-674): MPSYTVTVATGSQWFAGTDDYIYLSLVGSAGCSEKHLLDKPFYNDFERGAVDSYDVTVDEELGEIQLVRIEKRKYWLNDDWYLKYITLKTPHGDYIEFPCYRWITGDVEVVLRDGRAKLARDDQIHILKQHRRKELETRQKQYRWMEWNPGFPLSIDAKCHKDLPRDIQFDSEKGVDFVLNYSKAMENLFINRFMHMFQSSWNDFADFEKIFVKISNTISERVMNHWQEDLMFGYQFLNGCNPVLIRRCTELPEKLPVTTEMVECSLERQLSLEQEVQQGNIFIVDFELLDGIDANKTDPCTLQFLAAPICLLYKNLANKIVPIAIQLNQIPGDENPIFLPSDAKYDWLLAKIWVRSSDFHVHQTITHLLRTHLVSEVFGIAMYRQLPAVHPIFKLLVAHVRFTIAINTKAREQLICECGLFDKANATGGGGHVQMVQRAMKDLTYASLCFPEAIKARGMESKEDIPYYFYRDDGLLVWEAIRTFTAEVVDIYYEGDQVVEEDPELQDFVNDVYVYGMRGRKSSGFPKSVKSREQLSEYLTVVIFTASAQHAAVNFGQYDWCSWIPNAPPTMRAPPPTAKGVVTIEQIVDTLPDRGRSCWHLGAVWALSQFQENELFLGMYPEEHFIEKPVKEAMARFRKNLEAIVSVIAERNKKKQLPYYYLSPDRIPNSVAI
smiles,measurement,setting,value
C[C@H]1O[C@H](O[C@H]2[C@H](O)[C@@H](O)[C@@H](O[C@H]3[C@H](O)[C@@H](O)C(O)O[C@@H]3CO)O[C@@H]2CO)[C@H](O)[C@@H](O)[C@@H]1N[C@H]1C=C(CO)[C@@H](O)[C@H](O)[C@H]1O (stereo partly drawn) [Acarbose],α-glucosidase Inhibition %,α-glucosidase; 10 µg/mL,41.89 ± 0.10^c %
same,α-glucosidase Inhibition %,α-glucosidase; 50 µg/mL,80.36 ± 0.08^d %
same,α-glucosidase Inhibition %,α-glucosidase; 100 µg/mL,89.57 ± 0.15^f %
same,α-amylase Inhibition %,α-amylase; 10 µg/mL,38.57 ± 0.17^e %
same,α-amylase Inhibition %,α-amylase; 50 µg/mL,79.54 ± 0.12^d %
same,α-amylase Inhibition %,α-amylase; 100 µg/mL,86.31 ± 0.09^f %
same,β-galactosidase Inhibition %,β-galactosidase; 10 µg/mL,43.78 ± 0.12^e %
same,β-galactosidase Inhibition %,β-galactosidase; 50 µg/mL,83.72 ± 0.09^f %
same,β-galactosidase Inhibition %,β-galactosidase; 100 µg/mL,91.40 ± 0.10^g %
O=C1O[C@H]([C@@H](O)CO)C(O)=C1O [Ascorbic acid],DPPH Inhibition percentages (%),[1]; 10 µg/ml,73.12 ± 0.15^g %
same,DPPH Inhibition percentages (%),[1]; 50 µg/ml,82.47 ± 0.13^h %
same,DPPH Inhibition percentages (%),[1]; 100 µg/ml,90.52 ± 0.09^i %
same,ABTS Inhibition percentages (%),[2]; 10 µg/ml,76.02 ± 0.11^g %
same,ABTS Inhibition percentages (%),[2]; 50 µg/ml,81.43 ± 0.08^h %
same,ABTS Inhibition percentages (%),[2]; 100 µg/ml,87.26 ± 0.13^i %
CC(c1cc2ccccc2s1)N(O)C(N)=O (stereo not drawn) [Zileuton],inhibition at 1 µg/mL,[3]; 1 µg/ml,40.62 ± 0.08%
same,inhibition at 10 µg/mL,[3]; 10 µg/ml,61.39 ± 0.14%
same,inhibition at 100 µg/mL,[3]; 100 µg/ml,79.42 ± 0.13%
